Assay results from US20080090805A1, “CB-1 MODULATING COMPOUNDS AND THEIR USE” (ACADIA PHARMACEUTICALS INC., priority 2005, published 2008).

Biological target: native CB1 receptors (Rattus norvegicus, UniProt P20272)
Assay: CB1 receptor rat binding assay ([3H]SR141716A, rat brain membranes)
Conditions: rat brain membranes, [3H]SR141716A; for Ki: read-out: Binding rat pKi (converted)

Chain of native CB1 receptors (P20272 whole entry): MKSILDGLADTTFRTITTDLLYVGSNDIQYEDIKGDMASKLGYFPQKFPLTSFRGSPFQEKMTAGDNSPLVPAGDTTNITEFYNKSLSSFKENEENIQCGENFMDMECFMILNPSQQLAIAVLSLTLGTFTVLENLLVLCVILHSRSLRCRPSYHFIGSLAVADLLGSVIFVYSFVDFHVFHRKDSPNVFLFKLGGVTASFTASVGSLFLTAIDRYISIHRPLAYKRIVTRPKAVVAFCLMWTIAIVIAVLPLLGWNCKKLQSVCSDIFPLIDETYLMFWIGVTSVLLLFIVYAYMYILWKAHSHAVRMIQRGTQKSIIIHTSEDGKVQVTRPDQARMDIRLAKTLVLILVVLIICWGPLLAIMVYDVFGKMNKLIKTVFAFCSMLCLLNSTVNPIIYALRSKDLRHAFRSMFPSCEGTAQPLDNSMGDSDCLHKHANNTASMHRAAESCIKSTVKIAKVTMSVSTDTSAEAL

Structure (SMILES)	Binding rat Inh %	Ki
Cc1cccc(C2=Nc3cc(C(=O)NCC(C)C)ccc3Sc3ccccc32)n1 [drawing 1472]	96%	7.94 nM
O=C(NCCCC(F)(F)F)c1ccc2c(c1)N=C(c1ccccn1)c1ccccc1S2 [drawing 1473]	92%	7.94 nM
C[C@@H]1CCC[C@H](C)N1NC(=O)c1ccc2c(c1)N=C(c1ccc(Cl)cc1F)c1ccccc1S2 [drawing 1474]	71%	7.94 nM
Cc1ccsc1C1=Nc2cc(C(=O)NC(C)C)ccc2Sc2ccccc21 [drawing 1478]	60%	63.1 nM
CCCCNC(=O)c1ccc2c(c1)N=C(c1cccc(Cl)c1)c1ccccc1S2 [drawing 1479]	–	7.94 nM
CCCCNC(=O)c1ccc2c(c1)N=C(c1ccc(Cl)s1)c1ccc(Cl)cc1S2 [drawing 1480]	90%	10 nM
Cc1ccc(CNC(=O)c2ccc3c(c2)N=C(c2cccc(F)c2)c2ccccc2S3)o1 [drawing 1481]	88%	10 nM
O=C(NN1CCCCC1)c1ccc2c(c1)N=C(c1cccc(Br)c1)c1ccccc1S2 [drawing 1487]	–	10 nM
CC(C)CNC(=O)c1ccc2c(c1)N=C(c1cccc(F)c1)c1ccccc1S2 [drawing 1490]	87%	10 nM
O=C(NCc1ccccc1Cl)c1ccc2c(c1)N=C(C1CCCCC1)c1ccccc1S2 [drawing 1491]	–	10 nM
O=C(NCCc1ccc(Cl)cc1)c1ccc2c(c1)N=C(N1CCC(F)(F)CC1)c1ccccc1S2 [drawing 1492]	–	63.1 nM
O=C(NN1CCCCC1)c1ccc2c(c1)N=C(c1ccc(F)cn1)c1ccccc1S2 [drawing 1494]	94%	63.1 nM
C[C@@H]1CCC[C@H](C)N1NC(=O)c1ccc2c(c1)N=C(c1ccccc1F)c1ccccc1S2 [drawing 1495]	78%	63.1 nM
CCCCNC(=O)c1ccc2c(c1)N=C(c1cccc(F)c1)c1ccccc1S2 [drawing 1498]	82%	10 nM
O=C(NCCc1cccc(Cl)c1)c1ccc2c(c1)N=C(C1CCCCC1)c1ccccc1S2 [drawing 1499]	–	10 nM
CCCCNC(=O)c1ccc2c(c1)N=C(c1ccc(Cl)cn1)c1ccccc1S2 [drawing 1501]	98%	10 nM
CC(C)CNC(=O)c1ccc2c(c1)N=C(c1ccc(Cl)cn1)c1ccc(Cl)cc1S2 [drawing 1506]	90%	79.4 nM
Cc1ccsc1C1=Nc2cc(C(=O)NN3CCCCCC3)ccc2Sc2ccccc21 [drawing 1507]	76%	10 nM
CC(C)CCNC(=O)c1ccc2c(c1)N=C(c1ccccc1F)c1ccccc1S2 [drawing 1509]	85%	10 nM
CCONC(=O)c1ccc2c(c1)N=C(c1ccc(Cl)c(Cl)c1)c1ccccc1S2 [drawing 1512]	73%	79.4 nM
CC(CNC(=O)c1ccc2c(c1)N=C(N1CCCCC1)c1cc(F)ccc1S2)c1ccccc1 (stereo not shown) [drawing 1513]	–	79.4 nM

Structure (SMILES)	Binding rat Inh %	Ki
O=C(NCc1ccc(Cl)cc1Cl)c1ccc2c(c1)N=C(N1CCCCC1)c1ccccc1S2 [drawing 1514]	–	79.4 nM
CCCCNC(=O)c1ccc2c(c1)N=C(c1ccc(Cl)s1)c1cc(F)ccc1S2 [drawing 1515]	96%	10 nM
Cc1ccsc1C1=Nc2cc(C(=O)NCC(C)C)ccc2Sc2ccccc21 [drawing 1516]	98%	10 nM
CCOC(=O)N1CCC(NC(=O)c2ccc3c(c2)N=C(C2CCCCC2)c2ccccc2S3)CC1 [drawing 1517]	–	10 nM
Cc1ccsc1C1=Nc2cc(C(=O)NCCc3cccnc3)ccc2Sc2ccccc21 [drawing 1521]	93%	79.4 nM
O=C(NN1CCCCCC1)c1ccc2c(c1)N=C(c1ccc(Cl)cc1Cl)c1ccccc1S2 [drawing 1522]	72%	79.4 nM
O=C(NCc1cccc(Cl)c1)c1ccc2c(c1)N=C(N1CCC(F)CC1)c1ccccc1S2 [drawing 1523]	–	10 nM
C[C@@H]1CCC[C@H](C)N1NC(=O)c1ccc2c(c1)N=C(c1cccc(Cl)c1)c1ccccc1S2 [drawing 1526]	73%	10 nM
CCCCNC(=O)c1ccc2c(c1)N=C(c1ccccn1)c1ccccc1S2 [drawing 1527]	108%	79.4 nM
CC(C)NC(=O)c1ccc2c(c1)N=C(c1cccc(F)c1)c1ccccc1S2 [drawing 1528]	77%	79.4 nM
Cc1ccsc1C1=Nc2cc(C(=O)NN3[C@H](C)CCC[C@@H]3C)ccc2Sc2ccccc21 [drawing 1530]	65%	79.4 nM
Cc1ccsc1C1=Nc2cc(C(=O)NC3CCCCC3)ccc2Sc2ccccc21 [drawing 1531]	72%	10 nM
O=C(NCCCc1ccccc1)c1ccc2c(c1)N=C(N1CCCCC1)c1ccccc1S2 [drawing 1533]	–	10 nM
CCCCNC(=O)c1cnc2c(n1)N=C(c1ccccc1)c1ccccc1S2 [drawing 1534]	88%	12.6 nM
CCCC1=Nc2cc(C(=O)NCCc3ccc(OC)cc3OC)ccc2Sc2ccccc21 [drawing 1536]	–	79.4 nM
O=C(NC1CCCCC1)c1ccc2c(c1)N=C(c1ccccn1)c1ccccc1S2 [drawing 1537]	77%	100 nM
O=C(NC1CCCCC1)c1ccc2c(c1)N=C(c1ccccc1F)c1ccccc1S2 [drawing 1539]	83%	12.6 nM
O=C(NCCc1ccncc1)c1ccc2c(c1)N=C(c1ccc(Cl)s1)c1ccccc1S2 [drawing 1540]	109%	12.6 nM
O=C(NC1CCCC1)c1ccc2c(c1)N=C(c1ccc(Cl)s1)c1ccccc1S2 [drawing 1542]	91%	12.6 nM
CCOCCNC(=O)c1ccc2c(c1)N=C(c1ccc(C#N)cc1)c1ccccc1S2 [drawing 1543]	64%	100 nM
O=C(c1ccc2c(c1)N=C(c1ccc(F)cc1)c1ccccc1S2)N1CCCCC1 [drawing 1544]	–	100 nM

Results, then the molecule that gave them:

Binding rat Inh %	Ki	Structure (SMILES)
76%	63.1 nM	O=C(NCCc1ccccn1)c1ccc2c(c1)N=C(c1cccc(Cl)c1)c1ccccc1S2 [drawing 1475]
−43%	63.1 nM	CCOC(=O)c1ccc(C2=Nc3cc(C(=O)NCc4ccccn4)ccc3Sc3ccccc32)cc1 [drawing 1476]
–	63.1 nM	O=C(NCc1ccccc1Br)c1ccc2c(c1)N=C(c1ccccc1)c1ccccc1S2 [drawing 1483]
81%	63.1 nM	Clc1ccc(C2=Nc3cc(-c4ncc[nH]4)ccc3Sc3ccccc32)cc1 [drawing 1485]
66%	63.1 nM	NS(=O)(=O)c1ccc(CNC(=O)c2ccc3c(c2)N=C(c2ccc(Cl)cc2)c2ccccc2S3)cc1 [drawing 1486]
70%	10 nM	O=C(NNCC(F)(F)F)c1ccc2c(c1)N=C(c1ccc(Cl)cc1)c1ccccc1S2 [drawing 1488]
–	10 nM	CCN(CCNC(=O)c1ccc2c(c1)N=C(c1ccc(Cl)cc1)c1ccccc1S2)c1ccccc1 [drawing 1489]
–	63.1 nM	CC(NC(=O)c1ccc2c(c1)N=C(c1ccc(Cl)cc1)c1ccccc1S2)c1ccccc1 (stereo not shown) [drawing 1493]
83%	63.1 nM	CN1c2ccc(C(=O)NCc3ccc(F)cc3)cc2N=C(c2ccc(F)cc2)c2ccccc21 [drawing 1496]
123%	10 nM	O=C(NCCc1ccncc1)c1ccc2c(c1)N=C(c1ccc(Cl)c(Cl)c1)c1ccccc1S2 [drawing 1497]
90%	10 nM	CCCCNC(=O)c1ccc2c(c1)N=C(c1ccc(Cl)cc1)c1cc(F)ccc1S2 [drawing 1500]
63%	63.1 nM	O=C(NN1CCCC1)c1ccc2c(c1)N=C(c1ccc(Cl)cc1)c1ccccc1S2 [drawing 1502]
71%	79.4 nM	CCOCCNC(=O)c1ccc2c(c1)N=C(c1ccc(Cl)cc1)c1ccccc1S2 [drawing 1504]
66%	79.4 nM	O=C(NNCc1ccccc1)c1ccc2c(c1)N=C(c1cccc(Br)c1)c1ccccc1S2 [drawing 1505]
79%	10 nM	COc1ccc(C2=Nc3cc(C(=O)NCC(C)C)ccc3Sc3ccccc32)cc1 [drawing 1508]
–	10 nM	O=C(NCc1cccc(Cl)c1)c1ccc2c(c1)N=C(c1ccccc1F)c1ccccc1S2 [drawing 1510]
76%	79.4 nM	O=C(NCc1ccncc1)c1ccc2c(c1)N=C(c1cccc(Br)c1)c1ccccc1S2 [drawing 1511]
96%	10 nM	O=C(NC1CCCCC1)c1ccc2c(c1)N=C(c1ccc(Cl)cc1)c1ccccc1S2 [drawing 1518]
79%	79.4 nM	O=C(NNC(=O)c1ccc2c(c1)N=C(c1ccc(F)cc1)c1ccccc1S2)c1ccccc1 [drawing 1519]
–	10 nM	CC(CNC(=O)c1ccc2c(c1)N=C(c1ccc(Cl)cc1)c1cc(F)ccc1S2)c1ccccc1 (stereo not shown) [drawing 1524]
86%	10 nM	CC(C)CNC(=O)c1ccc2c(c1)N=C(c1ccc(Cl)cc1)c1ccc(Cl)cc1S2 [drawing 1525]
–	79.4 nM	CCCC1=Nc2cc(C(=O)NCc3ccc(F)cc3)ccc2Sc2ccccc21 [drawing 1529]
82%	10 nM	CCCCNC(=O)c1ccc2c(c1)N=C(c1ccc(OC)cc1)c1ccccc1S2 [drawing 1532]
68%	79.4 nM	COc1ccc(C2=Nc3cc(C(=O)NNC(=O)c4ccccc4)ccc3Sc3ccccc32)cc1 [drawing 1535]
65%	100 nM	N#Cc1ccc(C2=Nc3cc(C(=O)NNCc4ccccc4)ccc3Sc3ccccc32)cc1 [drawing 1538]
97%	12.6 nM	O=C(NCc1cccnc1)c1ccc2c(c1)N=C(c1ccc(F)cc1)c1ccccc1S2 [drawing 1541]
